US11352350B2, “IRAK degraders and uses thereof” (Kymera Therapeutics, Inc., priority 2018, dated 2022)
pIC50: −log10 of the molar value. Read-outs that look alike come from different tables or passages of the source.

Assays:
[1] = test system: OCI-LY10; test: CTG Cell Viability Assay - OCI-LY10; assay type: cell-based, human; settings: OCI-LY10, 4 days, read-out: CTG Cell Viability Assay - OCI-LY10: Average external-IC50
Procedure, shortened: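 OCI-LY10 cells exposed to 9-dose, 1:3 dilutions from 10 μM top (0.2% DMSO) for 4 days at 37° C, 5% CO2. Viability by CellTiter-Glo luminescence; IC50 from three-parameter logistic fit.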

[2] = target: T1, IRAK4 (Homo sapiens (Human), UniProt Q9NWZ3); test: IRAK4 degradation in human whole blood monocyte - flow cytometry; assay type: cell-based; settings: read-out: IRAK4 degradation in whole blood monocyte-Flow cytometry: Average external Abs IC50
T1 sequence (Q9NWZ3 whole entry): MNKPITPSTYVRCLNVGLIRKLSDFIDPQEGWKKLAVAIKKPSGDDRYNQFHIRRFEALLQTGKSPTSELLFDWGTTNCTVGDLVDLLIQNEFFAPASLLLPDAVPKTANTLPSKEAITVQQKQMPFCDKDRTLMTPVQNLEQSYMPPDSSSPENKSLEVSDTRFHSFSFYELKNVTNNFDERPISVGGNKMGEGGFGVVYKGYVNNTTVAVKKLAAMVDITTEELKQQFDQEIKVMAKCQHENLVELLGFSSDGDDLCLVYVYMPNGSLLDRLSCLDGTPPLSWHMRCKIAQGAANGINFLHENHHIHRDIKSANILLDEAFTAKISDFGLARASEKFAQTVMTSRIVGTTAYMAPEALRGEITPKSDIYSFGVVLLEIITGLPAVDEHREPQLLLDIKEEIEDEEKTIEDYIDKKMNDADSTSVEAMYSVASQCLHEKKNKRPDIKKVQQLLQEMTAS
Description: (§1) Human whole blood IRAK4 degradation flow assay. Whole blood was collected in heparinized tubes and plated on the same day as draw (day 0). Whole blood was aliquoted into deep well plates. Compound plates were prepared and a 10 point, 5-fold dilution was performed with a final DMSO concentration of 0.1%. Compound was added to whole blood deep well plate, sealed and incubated at 37° C., 5% CO2 for 20 hours (for 4 hour treatment, compounds were prepared and added the following day). Following the treatment incubation period (day 1), BD lyse fix (BD #558049) was added to the whole blood plate, placed on plate shaker for 30 seconds and incubated for 10 mins at room temperature. Whole blood was then spun down and washed two times with PBS/0.5% BSA, aspirated to pellet and placed into −80° C. freezer until further processing for flow. On the flow run day, whole blood plates were thawed and samples were transferred to PCR plates. The pre-perm staining cocktail (CD3 Ax488/CD8 BUV805/CD14 BUV395/CD16/56 BV711/CD19 BV785) was added to samples and incubated for 30 minutes at room temperature. Samples were washed two times and permeabilized with Methanol for 10 minutes at 4° C. Samples were washed two times and the post-perm staining cocktail (CD4 PE/IRAK4 Ax647 BD #560315) was added and incubated for 30 minutes at room temperature. Samples were washed two times with PBS/BSA and run on a BD LSRFortessa. Mononuclear cells are gated by SSCH/FSCH and single cells. Monocytes are then gated through CD14 positive gate and lymphocytes are gated through CD14 negative gate. To determine absolute DC50 and max degradation values, MFI values were normalized to DMSO max and 20 hour 10 μM min control. Twenty hour dose curves were calculated using a 4 parameter logistic regression curve fit, no constraints (Top doses were removed if hook effects were observed and the bottom was constrained to 0).

[3] = target: T1, IRAK4; test: IRAK4 MSD degradation in OCI-LY10; assay type: cell-based
Procedure, shortened: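 OCI-LY10 cells treated with 8-point 1:3 dilutions (top 1 to 10 μM final) for 4 to 24 h at 37° C. Lysate IRAK4 measured by MSD sandwich immunoassay (2H9 capture, Y279 detection, SULFO-TAG anti-rabbit). DC50 from three-parameter logistic fit.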

[4] = target: T1, IRAK4; test: IRAK4 degradation in human whole blood lymphocyte - flow cytometry; assay type: cell-based; settings: read-out: IRAK4 degradation in whole blood lymphocyte-Flow cytometry: Average external Abs IC50
Description: as §1

[5] = test system: TNFα; test: Human whole blood LPS TNFα assay; assay type: cell-based; settings: 20 h pretreatment, LPS 5 h, read-out: IRAK4 human whole blood LPS TNFa inhibition: Average external-IC50
Description: Human Whole blood LPS TNFα assay. Whole blood was collected fresh and plated same day into 96 well plates at 180 μL per well. Compound plates were prepared in DMSO as 8-point dose curves in duplicate, starting dose 2 μM, 5-fold. Compounds are added 20 μL into blood for final 200 μL per well. Compound and cells were incubated at 37° C., 5% CO2 for 20 hours. After twenty hours of pretreatment with the compounds, LPS (01 1 1:B4) (Sigma #L2637) was added at 100 ng/ml final concentration and blood incubated an additional five hours at 37° C., 5% CO2. Following assay completion, whole blood plates were spun down at 2000 rpm for 15 minutes at 4° C. 50 μL of plasma was carefully removed and placed into a new 96 well Costar (#3879) plate and stored at −80° C. until further analysis. Meso scale Discovery (MSD) human V-plex assays were used to measure cytokine levels. On day of cytokine analysis, plasma samples were thawed, diluted with V-plex diluent #2, and directly to MSD plates. Assay was further completed per standard manufacturer's protocol. Cytokine data was normalized to LPS stimulated and unstimulated controls. Prism Graphpad was used to generate IC50 using 4 parameter logistic regression curve, free-fit.

[6] = target: T1, IRAK4; test: hPBMC IRAK4 degradation flow assay; assay type: cell-based; settings: hPBMC monocyte, 20 hrs; read-out: IRAK4 degradation in hPBMC monocyte: DC50
Procedure, shortened: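 Thawed human PBMCs treated with 10-point, 5-fold compound dilutions (0.1% DMSO) at 37° C. for 20 hours or 4 hours. IRAK4 measured by flow MFI in CD14+ monocytes and CD14− lymphocytes, normalized to DMSO and 10 μM 20-hour control; DC50 and max degradation from 4-parameter logistic fit.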

[7] = test system: IL-6; test: IL-6 secretion in hPBMC using R848 stimulation; assay type: cell-based, human; settings: Homo sapiens, 20 h, hPBMC, R848 as stim, t = 20 h
[8] = OCI-LY10, 4 hrs, MSD, read-out: IRAK4 MSD degradation in OCI-LY10 at 4 hrs: Average external-Abs DC50
[9] = OCI-LY10, 4 hrs, read-out: IRAK4 MSD degradation in OCI-LY10 at 4 hrs: DC50

Row | SMILES | pIC50 ([1]; Homo sapiens, OCI-Ly10, 96 h) | DC50 [2] [nM] | DC50 [3, 8] [nM] | DC50 ([3]; OCI-LY10, 24 hrs, MSD, read-out: IRAK4 MSD degradation in OCI-LY10 at 24 hrs: Average external-Abs DC50) [nM] | DC50 [4] [nM] | pIC50 [2] | pIC50 [5] | pIC50 [1] | DC50 [3, 9] [nM] | DC50 [6] [nM] | pIC50 [7]
1 | Cn1c(=O)n(C2CCC(=O)NC2=O)c2cccc(CCCOCCOCCNC(=O)[C@H]3CC[C@H](n4cc(NC(=O)c5coc(-c6ccnc(NCC7CC7)c6)n5)c(C(F)F)n4)CC3)c21 (some centres unmarked) [I-1] | 7.00 to 7.30 | 100 to 500 | < 10 | 10 to 100 | 100 to 500 |  |  |  |  |  | 
2 | O=C1CCC(n2c(=O)oc3cc(CCCOCCOCCNC[C@H]4CC[C@H](n5cc(NC(=O)c6coc(-c7ccnc(NCC8CC8)c7)n6)c(C(F)F)n5)CC4)ccc32)C(=O)N1 (some centres unmarked) [I-3] | < 6.00 |  | < 10 |  | < 50 | > 7.30 |  |  |  |  | 
3 | O=C1CCC(n2c(=O)oc3c(CCCOCCNC(=O)[C@H]4CC[C@H](n5cc(NC(=O)c6coc(-c7ccnc(NCC8CC8)c7)n6)c(C(F)F)n5)CC4)cccc32)C(=O)N1 (some centres unmarked) [I-5] | > 7.30 | 100 to 500 | < 10 |  | 100 to 500 |  | < 6.00 |  |  |  | 
4 | Cn1c(=O)n(C2CCC(=O)NC2=O)c2cccc(CCCOCCOCCNC[C@H]3CC[C@H](n4cc(NC(=O)c5coc(-c6ccnc(NCC(F)(F)F)c6)n5)c(C(N)=O)n4)CC3)c21 (some centres unmarked) [I-6] | < 6.00 |  | < 10 |  | < 50 | > 7.30 | < 6.00 |  |  |  | 
5 | Cn1c(=O)n(C2CCC(=O)NC2=O)c2ccc(CCCOCCNC[C@H]3CC[C@H](n4cc(NC(=O)c5coc(-c6ccnc(NCC(F)(F)F)c6)n5)c(C(N)=O)n4)CC3)cc21 (some centres unmarked) [I-8] | < 6.00 |  | 10 to 100 |  | < 50 | > 7.30 | < 6.00 |  |  |  | 
6 | Cn1c(=O)n(C2CCC(=O)NC2=O)c2ccc(CCCCOCCCCNC[C@H]3CC[C@H](n4cc(NC(=O)c5coc(-c6ccnc(NCC(F)(F)F)c6)n5)c(C(N)=O)n4)CC3)cc21 (some centres unmarked) [I-9] | < 6.00 |  | < 10 |  | 50 to 100 | > 7.30 | < 6.00 |  |  |  | 
7 | NC(=O)c1nn([C@H]2CC[C@H](CNCCCOCCCc3cccc4c3oc(=O)n4C3CCC(=O)NC3=O)CC2)cc1NC(=O)c1coc(-c2ccnc(NCC(F)(F)F)c2)n1 (some centres unmarked) [I-12] | 6.00 to 6.30 | 500 to 1000 | 10 to 100 |  | 100 to 500 |  | 6.00 to 6.30 |  |  |  | 
8 | CN(C[C@H]1CN(CCCc2ccc3c(c2)n(C)c(=O)n3C2CCC(=O)NC2=O)CCO1)C(=O)[C@H]1CC[C@H](n2cc(NC(=O)c3coc(-c4ccnc(NCC5CC5)c4)n3)c(C(F)F)n2)CC1 (some centres unmarked) [I-18] | 7.00 to 7.30 |  | < 10 |  | 100 to 500 | > 7.30 | 6.30 to 7.00 |  |  |  | 
9 | CN(CC1CCN(CCC#Cc2ccc3c(c2)n(C)c(=O)n3C2CCC(=O)NC2=O)CC1)C(=O)[C@H]1CC[C@H](n2cc(NC(=O)c3coc(-c4ccnc(NCC5CC5)c4)n3)c(C(F)F)n2)CC1 (some centres unmarked) [I-27] | > 7.30 |  | < 10 |  | < 50 | > 7.30 | 6.30 to 7.00 |  |  |  | 
10 | CN(CCCOCCCc1cccc2c1n(C)c(=O)n2C1CCC(=O)NC1=O)C(=O)[C@H]1CC[C@H](n2cc(NC(=O)c3coc(-c4ccnc(NCC(F)(F)F)c4)n3)c(C(N)=O)n2)CC1 (some centres unmarked) [I-28, N-[3-carbamoyl-1-[4-[3-[3-[1-(2,6-dioxo-3-piperidyl)-3-methyl-2-oxo-benzimidazol-4-yl]propoxy]propyl-methylcarbamoyl]cyclohexyl]pyrazol-4-yl]-2-[2-(2,2,2-trifluoroethylamino)-4-pyridyl]oxazole-4-carboxamide] |  | 50 to 100 | < 10 |  | 100 to 500 |  | < 6.00 | > 7.30 |  |  | 
11 | CN(CCCOCCCc1cccc2c1n(C)c(=O)n2C1CCC(=O)NC1=O)C(=O)[C@H]1CC[C@H](n2cc(NC(=O)c3coc(-c4ccnc(NCC(F)(F)F)c4)n3)c(C(N)=O)n2)CC1 (some centres unmarked) [I-29] |  | 500 to 1000 | < 10 |  | 500 to 1000 |  | < 6.00 | < 6.00 |  |  | 
12 | O=C1CCC(n2c3ccccc3c3c(CCCOCCOCCNC[C@H]4CC[C@H](n5cc(NC(=O)c6coc(-c7ccnc(NCC8CC8)c7)n6)c(C(F)F)n5)CC4)ccnc32)C(=O)N1 (some centres unmarked) [I-92] | 6.30 to 7.00 | 100 to 500 | 10 to 100 |  | 500 to 1000 |  |  |  |  |  | 
13 | CC(C)c1nn([C@H]2CC[C@H](CN(C)C[C@@H]3CN(CCCc4ccc5c(c4)n(C)c(=O)n5C4CCC(=O)NC4=O)CCO3)CC2)cc1NC(=O)c1coc(-c2ccnc(NCC3CC3)c2)n1 (stereo partly drawn) [I-94, 2-[2-(Cyclopropylmethylamino)-4-pyridyl]-N-[1-[4-[[[(2R)-4-[3-[1-(2,6-dioxo-3-piperidyl)-3-methyl-2-oxo-benzimidazol-5-yl]propyl]morpholin-2-yl]methyl-methyl-amino]methyl]cyclohexyl]-3-isopropyl-pyrazol-4-yl]oxazole-4-carboxamide] |  | 100 to 500 |  |  | 100 to 500 |  |  |  |  |  | 
14 | CN(C[C@H]1CC[C@H](C2N=C(NC(=O)c3cnn4ccc(N5C[C@H]6C[C@@H]5CO6)nc34)C(C(F)F)=N2)CC1)C1CCC2(CC1)CC(Cc1cccc3c1n(C)c(=O)n3C1CCC(=O)NC1=O)C2 (some centres unmarked) [I-554] | < 6.00 |  |  |  |  |  |  |  | 10 to 100 | < 10 | > 9.00
15 | C[C@H](C#Cc1cccc2c1N(C)C(=O)C2C1CCC(=O)NC1=O)OC1CCN(C[C@H]2CC[C@H](n3cc(NC(=O)c4cnn5ccc(N6C[C@H]7C[C@@H]6CO7)nc45)c(C(F)F)n3)CC2)CC1 (some centres unmarked) [I-555] | < 6.00 |  |  |  |  |  |  |  | < 10 | < 10 | 8.00 to 9.00
